Measurements reported in US11000581B2, “Engineering gut commensal bacteria to express heterologous proteins in their outer membrane vesicles (OMVs) for delivery to the GI-tract” (QUADRAM INSTITUTE BIOSCIENCE, priority 2016, dated 2021).
In brackets after ≈: the same amount, converted by molar mass. Where two headings read alike, the source gives them in different places.

Key:
[1] = tested on: B. thetaiotaomicron; test: Minimum inhibitory concentration of ampicillin for variant strains with or without mannan; type: cell-based; conditions: Bacteroides thetaiotaomicron, read-out: minimum inhibitory concentration (MIC) of ampicillin
Excerpt: Since optimization of this novel gene expression system was based upon the use of a heterologous reporter gene, the system was validated by determining if it can be used to study B. thetaiotaomicron genes. For this purpose, the complementation of a deletion mutant of BtcepA (Stentz et al., 2015), a cephalosporinase gene involved in the resistance of bacterial cells to β-lactam antibiotics, was undertaken. The primer pair Lactamase_F and Lactamase_EcoRI_R was used to amplify an 885-bp region from B. thetaiotaomicron VPI-5482 genomic DNA encoding BtcepA. […] The β-lactamase activity was measured after 2 h of induction with increasing concentrations of mannan (Table 4). […] Periplasmic proteins were prepared as described by Stentz et al. (Stentz et al., 2015). β-lactamase activity was assessed spectrophotometrically by hydrolysis of nitrocefin according to the manufacturer's instructions (Calbiochem). […] The basal level measured for the low expression system was negligible since it represented only 2.7% of the activity measured for the wild-type control strain. To establish how these measured activities translate into resistance to β-lactam antibiotics the minimum inhibitory concentration (MIC) of the β-lactam antibiotic ampicillin was determined for each variant strain grown in the presence or absence of mannan.

[2] = tested on: GH361; test: MIC of ceftriaxone for GH361; type: cell-based, B. thetaiotaomicron; conditions: Bacteroides thetaiotaomicron
Procedure: “α-mannan is a fungal cell wall glycan that contains α-mannosidic linkages similar to those found in the core regions of N-linked glycans present on secreted mucus and epithelial surfaces” (Martens et al., 2011). However, expression levels of the PUL genes involved in mannan utilization in mice fed a diet lacking exogenous α-mannan were only partial when compared to other PULs showing high activity in vivo (Martens et al., 2008). The effectiveness of the mannan induced system was tested in vivo in seven-week-old male C57BL/6J WT mice with established B. thetaiotaomicron within the intestine, housed in a conventional animal facility after treating for 3 days with 1 mg/ml ampicillin and 1 mg/ml neomycin administered via drinking water. To achieve this, the strain GH361 containing the BtCepA gene controlled by the inducible low expression system (Table 1) was administered by oral gavage (1×10^8 colony-forming units (CFU) in 100 μl of phosphate buffered saline) to two groups of 4 mice. […] The MICs of ceftriaxone determined for GH361 were 8 mg/L when cells were grown in the absence of mannan and 64 mg/L when mannan was added to the growth medium. […]

[3] = tested on: GH361; test: Mannan-induced BtCepA expression in the mouse gut (ceftriaxone challenge, fecal CFU); type: in vivo, mice
Excerpt: FIG. 4. In vivo induction of ceftriaxone resistance using exogenous α-mannan. Crosses indicate times of i.p. injections. GA: Group A of mice received mannan in their drinking water. GB: Group B of mice which were given access to regular drinking water. CRO: ceftriaxome.
“α-mannan is a fungal cell wall glycan that contains α-mannosidic linkages similar to those found in the core regions of N-linked glycans present on secreted mucus and epithelial surfaces” (Martens et al., 2011). However, expression levels of the PUL genes involved in mannan utilization in mice fed a diet lacking exogenous α-mannan were only partial when compared to other PULs showing high activity in vivo (Martens et al., 2008). The effectiveness of the mannan induced system was tested in vivo in seven-week-old male C57BL/6J WT mice with established B. thetaiotaomicron within the intestine, housed in a conventional animal facility after treating for 3 days with 1 mg/ml ampicillin and 1 mg/ml neomycin administered via drinking water. To achieve this, the strain GH361 containing the BtCepA gene controlled by the inducible low expression system (Table 1) was administered by oral gavage (1×10^8 colony-forming units (CFU) in 100 μl of phosphate buffered saline) to two groups of 4 mice. One of the groups (Group A) were given drinking water with containing 2.5% (v/v) mannan-oligosaccharide supplement (ActiveMOS, Orffa, Werkendam, The Netherlands) prepared treating the powder (10% w/v) with 1% NaOH at 100° C. for 1 h, cooling and neutralizing to pH7 with dilute HCl solution (Huang et al., 2010). […] Both groups of mice were challenged every other day via i.p. injection with ceftriaxone (0.4 mg/mice), a third-generation cephalosporin that is excreted via the biliary route and affects the colonic microbiota (Arvidsson et al., 1982). The MICs of ceftriaxone determined for GH361 were 8 mg/L when cells were grown in the absence of mannan and 64 mg/L when mannan was added to the growth medium. […]

| SMILES | MIC [1] [µg/mL] | MIC ([2]; read-out: MIC of ceftriaxone, GH361, mannan added to the growth medium) [µg/mL] | MIC ([2]; read-out: MIC of ceftriaxone, GH361 grown in the absence of mannan) [µg/mL] | effect on GH361 population levels ([3]; ceftriaxone increased to 0.8 mg, both groups) | effect on levels of GH361 (CFU in fecal samples) ([3]; group A given mannan in drinking water, three successive i.p. doses 0.4 mg/mice) | decrease of levels of GH361 (CFU in fecal samples) ([3]; group B not given mannan, three successive i.p. doses 0.4 mg/mice) |
| --- | --- | --- | --- | --- | --- | --- |
| CC1(C)S[C@@H]2[C@H](NC(=O)[C@H](N)c3ccccc3)C(=O)N2[C@H]1C(=O)O [ampicillin] | 4 to 2050 (≈ 11.4 to 5860 µM) |  |  |  |  |  |
| CO/N=C(\C(=O)N[C@@H]1C(=O)N2C(C(=O)O)=C(CSc3nc(=O)c(=O)[nH]n3C)CS[C@H]12)c1csc(N)n1 [ceftriaxone] |  | 64 | 8 | decreased significantly | no effect | approximately 15 fold |
